Source: the supplement of paper PMC10307832

How the values were obtained:
Test in all cases: relative viability (nuclei count vs DMSO), 5 days (fraction); higher = more cells survive
[1] = compound: CCC1=CN=CN=C1N2CCN(CC2)CC3=NC4=C(N3)C=C(C=C4)C(F)(F)F + CC(=O)c1c(C)c2cnc(Nc3ccc(N4CCNCC4)cn3)nc2n(C2CCCC2)c1=O [Palbociclib] (partner 0.5 µM)
In short: (§1)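 One day after seeding in 1536-well plates, lung cancer cell lines were dosed by pin tool. Dosing was either single-drug or a fixed anchor-drug dose plus five library-drug doses (not always all listed) in √10 steps. After 5 days, nuclei were stained in one fix-and-stain step and counted on 4× images, and relative viability is the nuclei count of treated wells over that of vehicle wells, given as the median of duplicate plates.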

[2] = compound: CCC1=CN=CN=C1N2CCN(CC2)CC3=NC4=C(N3)C=C(C=C4)C(F)(F)F + CS(=O)(=O)CCNCc1ccc(-c2ccc3ncnc(Nc4ccc(OCc5cccc(F)c5)c(Cl)c4)c3c2)o1 [Lapatinib] (partner 2 µM)
In short: as §1

[3] = compound: CCC1=CN=CN=C1N2CCN(CC2)CC3=NC4=C(N3)C=C(C=C4)C(F)(F)F + Nc1ncn([C@H]2C[C@H](O)[C@@H](CO)O2)c(=O)n1 [Decitabine] (partner 2 µM)
In short: as §1

Mirin + OSI-027 = compound: N=C1NC(=O)/C(=C/c2ccc(O)cc2)S1 [Mirin] + COc1cccc2cc(-c3nc([C@H]4CC[C@H](C(=O)O)CC4)n4ncnc(N)c34)[nH]c12 [OSI-027] (partner 0.5 µM)
In short: as §1

Cell Line: UMC-11
- relative viability ([1]; first compound 0.04 µM): 0.331
- relative viability ([1]; first compound 0.1265 µM): 0.315
- relative viability ([1]; first compound 0.4 µM): 0.306
- relative viability ([1]; first compound 1.265 µM): 0.221
- relative viability ([1]; first compound 4 µM): 0.257
- relative viability ([2]; first compound 0.04 µM): 0.808
- relative viability ([2]; first compound 0.1265 µM): 0.974
- relative viability ([2]; first compound 0.4 µM): 0.905
- relative viability ([2]; first compound 1.265 µM): 0.719
- relative viability ([2]; first compound 4 µM): 0.977
- relative viability ([3]; first compound 0.04 µM): 0.622
- relative viability ([3]; first compound 0.1265 µM): 0.562
- relative viability ([3]; first compound 0.4 µM): 0.602
- relative viability ([3]; first compound 1.265 µM): 0.379
- relative viability ([3]; first compound 4 µM): 0.351
- relative viability (Mirin + OSI-027; first compound 0.25 µM): 0.477
- relative viability (Mirin + OSI-027; first compound 0.7906 µM): 0.483
- relative viability (Mirin + OSI-027; first compound 2.5 µM): 0.461
- relative viability (Mirin + OSI-027; first compound 7.906 µM): 0.396
- relative viability (Mirin + OSI-027; first compound 25 µM): 0.293
